According to patent publication US11939348B2, “Compositions comprising a phosphorus derivative of nicotinamide riboside and methods for modulation of nicotinamide adenine dinucleotide” (Metro International Biotech, LLC, priority 2019, dated 2024):

System: AML12 cells
Assay: NAD(H) normalized to total protein in treated AML12 cells compared to untreated cells
Assay type: cell-based
Conditions: compound at 2 mM, 1 mM and 500 micromolar, untreated cells normalized to 1.0, FIG. 1
Source text: Compound A is Formula I, n=2. Compound B is Formula I, n=1.

Q: With `NC(=O)c1ccc[n+]([C@@H]2O[C@H](COP(=O)([O-])OP(=O)([O-])OCC3O[C@@H]([n+]4cccc(C(N)=O)c4)[C@H](O)[C@@H]3O)[C@@H](O)[C@H]2O)c1` (some centres unmarked) [Compound A] as the molecule, how does the “NAD(H) normalized to total protein in treated AML12 cells compared to untreated cells” value read?
A: possess NAD(H) boosting activity

Q: For `NC(=O)c1ccc[n+]([C@@H]2O[C@H](COP(=O)(O)OC[C@H]3O[C@@H]([n+]4cccc(C(N)=O)c4)[C@H](O)[C@@H]3O)[C@@H](O)[C@H]2O)c1` [Compound B, bis(((2R,3S,4R,5R)-5-(3-carbamoylpyridin-1-ium-1-yl)-3,4-dihydroxytetrahydrofuran-2-yl)methyl) phosphate acetate], which “NAD(H) normalized to total protein in treated AML12 cells compared to untreated cells” value is on record?
A: possess NAD(H) boosting activity
